Results on 43 compounds are retold here after patent publication US11384063B2, “Modulators of estrogen receptor proteolysis and associated methods of use” (Arvinas Operations, Inc., priority 2017, dated 2022).

By IC50 is commonly meant the concentration at which inhibition is half-maximal.

This assay concerns the target T1, ERα (Homo sapiens, UniProt P03372).
T1 sequence (P03372 1-595): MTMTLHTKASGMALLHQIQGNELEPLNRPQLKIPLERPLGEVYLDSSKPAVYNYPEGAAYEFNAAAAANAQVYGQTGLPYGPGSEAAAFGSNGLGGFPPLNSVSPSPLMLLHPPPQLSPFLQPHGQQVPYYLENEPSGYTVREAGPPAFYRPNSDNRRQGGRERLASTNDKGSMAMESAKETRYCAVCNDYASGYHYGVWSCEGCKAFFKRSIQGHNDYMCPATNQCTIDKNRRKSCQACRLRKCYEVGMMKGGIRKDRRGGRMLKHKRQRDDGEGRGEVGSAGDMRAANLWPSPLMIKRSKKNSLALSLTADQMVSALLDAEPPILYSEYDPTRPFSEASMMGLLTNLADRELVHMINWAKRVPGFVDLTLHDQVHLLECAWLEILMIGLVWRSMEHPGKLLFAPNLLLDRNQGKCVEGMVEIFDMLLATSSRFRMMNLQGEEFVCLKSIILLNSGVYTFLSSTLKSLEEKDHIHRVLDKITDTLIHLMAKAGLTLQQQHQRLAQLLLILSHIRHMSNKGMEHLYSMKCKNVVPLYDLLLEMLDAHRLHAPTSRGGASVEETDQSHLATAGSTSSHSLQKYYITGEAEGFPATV
The assay is described as follows: ERE luciferase reporter gene assay in T47D-KBluc cells (target engagement). In kind it is cell-based. Set-up: T47D human breast cancer cells stably transfected with estrogen responsive element/promoter/luciferase reporter gene; host or cells: T47D-KBluc cells. Conditions: 10% FBS, 24 hours, Table 1 cereblon centric PROTACs, read-out: ER-α Luciferase IC50. The protocol:
Chimeric molecules were assessed for target engagement in T47D cells using the commercial kit of ERE luciferase reporter gene assay. In the assay, 10% FBS was included and estrogen level was measured to be 10 pM.
ERE Luciferase Assay for Compounds in Table 1-3.
T47D-KBluc cells (ATCC #CRL_2865, T47D human breast cancer cells stably transfected with estrogen responsive element/promoter/luciferase reporter gene) were seeded into 96-well white opaque plates in RPMI growth medium supplemented with 10% fetal bovine serum and allowed to adhere overnight in a 37° C. humidified incubator. The following day, cells were treated with PROTACs in a 12-point concentration curve (top final concentration of 300 nM with subsequent concentrations being 3-fold less with 2 pM being the lowest concentration in the assay). Each PROTAC was tested independently in two experiments on 96-well plates. After 24 hours, media was removed and lysis buffer was added to the wells. Following lysis, Bright-Glo™ Luciferase Assay Substrate (Prornega, Madison Wis.) was added and the luciferase activity was measured using a Cytation 3 plate reader (TioTek™, Winooski, Vt.). Each compound was assayed in duplicates and the activity was calculated as IC50 using GraphPad Prism software (San Diego, Calif.).
As for `O=C1CCC(N2C(=O)c3cccc(NCCOCCOCCOCCOCCOc4ccc(Oc5c(-c6ccc(Br)cc6)sc6cc(O)ccc56)cc4)c3C2=O)C(=O)N1` (stereo not shown) [Compound 20], the IC50 is 39.9 nM.

Consider `O=C1CCC(N2Cc3c(OCCOCCOCCOCCOc4ccc(Oc5c(-c6ccc(Br)cc6)sc6cc(O)ccc56)cc4)cccc3C2=O)C(=O)N1` (stereo not shown) [Compound 21], for which the IC50 was determined as 17.4 nM.

Turning to `O=C1CCC(N2Cc3c(NCCOCCOCCOCCOc4ccc(Oc5c(-c6ccc(Br)cc6)sc6cc(O)ccc56)cc4)cccc3C2=O)C(=O)N1` (stereo not shown) [Compound 22], the IC50 is 41.4 nM.

On to `O=C1CCC(N2C(=O)c3cccc(NCCOCCOCCOCCOc4ccc(Oc5c(-c6ccc(Br)cc6)sc6cc(O)ccc56)cc4)c3C2=O)C(=O)N1` (stereo not shown) [Compound 23], for which the IC50 is 22.4 nM.

As to `O=C1CCC(N2Cc3c(NCCOCCOCCOc4ccc(Oc5c(-c6ccc(Br)cc6)sc6cc(O)ccc56)cc4)cccc3C2=O)C(=O)N1` (stereo not shown) [Compound 24], the IC50 came to 16.8 nM.

Regarding `O=C1CCC(N2Cc3c(OCCOCCOCCOCCOCCOc4ccc(Oc5c(-c6ccc(Br)cc6)sc6cc(O)ccc56)cc4)cccc3C2=O)C(=O)N1` (stereo not shown) [Compound 25], the IC50 turned out to be 8.6 nM.

As to `O=C1CCC(N2C(=O)c3cccc(NCCOCCOCCOc4ccc(Oc5c(-c6ccc(Br)cc6)sc6cc(O)ccc56)cc4)c3C2=O)C(=O)N1` (stereo not shown) [Compound 26], the IC50 amounted to 9.7 nM.

For `O=C1CCC(N2Cc3c(NCCOCCOc4ccc(Oc5c(-c6ccc(Br)cc6)sc6cc(O)ccc56)cc4)cccc3C2=O)C(=O)N1` (stereo not shown) [Compound 27], the IC50 is 8.3 nM.

On to `O=C1CCC(N2Cc3c(OCCOc4ccc(Oc5c(-c6ccc(Br)cc6)sc6cc(O)ccc56)cc4)cccc3C2=O)C(=O)N1` (stereo not shown) [Compound 28], for which the IC50 was found to be 2.7 nM.

Consider `O=C1CCC(N2C(=O)c3cccc(NCCOCCOc4ccc(Oc5c(-c6ccc(Br)cc6)sc6cc(O)ccc56)cc4)c3C2=O)C(=O)N1` (stereo not shown) [Compound 29], for which the IC50 is 19.2 nM.

Regarding `O=C1CCC(N2Cc3cc(OCCN4CCN(CCOc5ccc(Oc6c(-c7ccc(Br)cc7)sc7cc(O)ccc67)cc5)CC4)ccc3C2=O)C(=O)N1` (stereo not shown) [Compound 30], the IC50 was determined as 1.3 nM.

Turning to `O=C1CCC(N2C(=O)c3cccc(NCCOc4ccc(Oc5c(-c6ccc(Br)cc6)sc6cc(O)ccc56)cc4)c3C2=O)C(=O)N1` (stereo not shown) [Compound 32], the IC50 worked out at 8.2 nM.

Regarding `O=C1CCC(N2Cc3cc(OCCCN4CCN(CCOc5ccc(Oc6c(-c7ccc(Br)cc7)sc7cc(O)ccc67)cc5)CC4)ccc3C2=O)C(=O)N1` (stereo not shown) [Compound 34], the IC50 stood at 1 nM.

For the compound `O=C1CCC(N2Cc3cc(OCCCOCCCOc4ccc(Oc5c(-c6ccc(Br)cc6)sc6cc(O)ccc56)cc4)ccc3C2=O)C(=O)N1` (stereo not shown) [Compound 35], the IC50 came to 9.9 nM.

On to `O=C1CCC(N2Cc3cc(OCCCOCCCOCCCOc4ccc(Oc5c(-c6ccc(Br)cc6)sc6cc(O)ccc56)cc4)ccc3C2=O)C(=O)N1` (stereo not shown) [Compound 36], for which the IC50 was 4.7 nM.

On to `O=C1CCC(N2Cc3c(OCCN4CC5(CN(CCOc6ccc(Oc7c(-c8ccc(Br)cc8)sc8cc(O)ccc78)cc6)C5)C4)cccc3C2=O)C(=O)N1` (stereo not shown) [Compound 37], for which the IC50 is 4.2 nM.

Turning to `O=C1CC[C@@H](N2Cc3cc(OCCN4C[C@H]5C[C@@H]4CN5CCOc4ccc(Oc5c(-c6ccc(Br)cc6)sc6cc(O)ccc56)cc4)ccc3C2=O)C(=O)N1` [Compound 38], the IC50 is 1.1 nM.

As for `O=C1CCC(N2Cc3cc(OCCOCCOCCOc4ccc(Oc5c(-c6ccc(Br)cc6)sc6cc(O)ccc56)cc4)ccc3C2=O)C(=O)N1` (stereo not shown) [Compound 39], the IC50 turned out to be 3.1 nM.

For `O=C1CCC(N2Cc3cc(OCCCOCCOc4ccc(Oc5c(-c6ccc(Br)cc6)sc6cc(O)ccc56)cc4)ccc3C2=O)C(=O)N1` (stereo not shown) [Compound 40], the IC50 was determined as 3.9 nM.

For `O=C1CC[C@H](N2Cc3cc(OCCN4CC5(CN(CCOc6ccc(Oc7c(-c8ccc(Br)cc8)sc8cc(O)ccc78)cc6)C5)C4)ccc3C2=O)C(=O)N1` [Compound 41], the half-maximal inhibitory concentration (IC50) was found to be 2.4 nM.

`O=C1CC[C@H](N2Cc3cc(OCCN4C[C@@H]5C[C@H]4CN5CCOc4ccc(Oc5c(-c6ccc(Br)cc6)sc6cc(O)ccc56)cc4)ccc3C2=O)C(=O)N1` [Compound 42]: the IC50 turned out to be 0.53 nM.

For the compound `O=C1CCC(N2Cc3cc(OCCCOCCOCCOc4ccc(Oc5c(-c6ccc(Br)cc6)sc6cc(O)ccc56)cc4)ccc3C2=O)C(=O)N1` (stereo not shown) [Compound 43], the IC50 amounted to 6.1 nM.

In the case of `O=C1CC[C@H](N2Cc3cc(OCCOC4CCN(CCOc5ccc(Oc6c(-c7ccc(Br)cc7)sc7cc(O)ccc67)cc5)CC4)ccc3C2=O)C(=O)N1` [Compound 44], the IC50 was determined as 0.54 nM.

For `O=C1CCC(N2Cc3cc(OCCCOCCCOCCOc4ccc(Oc5c(-c6ccc(Br)cc6)sc6cc(O)ccc56)cc4)ccc3C2=O)C(=O)N1` (stereo not shown) [Compound 45], the IC50 stood at 6.5 nM.

For `O=C1CCC(N2Cc3cc(CCC(=O)N4CCN(CCOc5ccc(Oc6c(-c7ccc(Br)cc7)sc7cc(O)ccc67)cc5)CC4)ccc3C2=O)C(=O)N1` (stereo not shown) [Compound 46], the IC50 is 1.9 nM.

As to `O=C1CCC(N2Cc3cc(CCCCC(=O)N4CCN(CCOc5ccc(Oc6c(-c7ccc(Br)cc7)sc7cc(O)ccc67)cc5)CC4)ccc3C2=O)C(=O)N1` (stereo not shown) [Compound 47], the IC50 was found to be 0.86 nM.

As to `O=C1CCC(N2Cc3cc(OCCCOCCCOCCCCOc4ccc(Oc5c(-c6ccc(Br)cc6)sc6cc(O)ccc56)cc4)ccc3C2=O)C(=O)N1` (stereo not shown) [Compound 48], the IC50 amounted to 8.3 nM.

Consider `O=C1CCC(N2C(=O)c3ccc(N4CCN(CCCOc5ccc(Oc6c(-c7ccc(Br)cc7)sc7cc(O)ccc67)cc5)CC4)cc3C2=O)C(=O)N1` (stereo not shown) [Compound 49], for which the IC50 was found to be 17.7 nM.

Regarding `O=C1CCC(N2Cc3cc(OC4CC5(CCN(CCOc6ccc(Oc7c(-c8ccc(Br)cc8)sc8cc(O)ccc78)cc6)CC5)C4)ccc3C2=O)C(=O)N1` (stereo not shown) [Compound 50], the IC50 was 2.2 nM.

Consider `O=C1CCC(N2C(=O)c3ccc(N4CCN(CCCCCCOc5ccc(Oc6c(-c7ccc(Br)cc7)sc7cc(O)ccc67)cc5)CC4)cc3C2=O)C(=O)N1` (stereo not shown) [Compound 51], for which the IC50 was determined as 26.2 nM.

In the case of `CC(COc1ccc(Oc2c(-c3ccc(Br)cc3)sc3cc(O)ccc23)cc1)N1CCN(CCCCc2ccc3c(c2)CN(C2CCC(=O)NC2=O)C3=O)CC1` (stereo not shown) [Compound 53], the IC50 was found to be 0.6 nM.

With `O=C1CCC(N2Cc3cc(N4CCN(CCCCCCOc5ccc(Oc6c(-c7ccc(Br)cc7)sc7cc(O)ccc67)cc5)CC4)ccc3C2=O)C(=O)N1` (stereo not shown) [Compound 54], the IC50 was found to be 12.1 nM.

In the case of `O=C1CCC(N2Cc3cc(N4CCN(CCOc5ccc(Oc6c(-c7ccc(Br)cc7)sc7cc(O)ccc67)cc5)CC4)ccc3C2=O)C(=O)N1` (stereo not shown) [Compound 55], the IC50 is 1.8 nM.

For `O=C1CCC(N2C(=O)c3ccc(N4CCN(CCOc5ccc(Oc6c(-c7ccc(Br)cc7)sc7cc(O)ccc67)cc5)CC4)cc3C2=O)C(=O)N1` (stereo not shown) [Compound 56], the IC50 is 10.6 nM.

As for `O=C1CCC(N2Cc3cc(N4CCN(CCCCOc5ccc(Oc6c(-c7ccc(Br)cc7)sc7cc(O)ccc67)cc5)CC4)ccc3C2=O)C(=O)N1` (stereo not shown) [Compound 58], the IC50 turned out to be 6.6 nM.

As to `O=C1CCC(N2Cc3cc(N4CCN(CCCOc5ccc(Oc6c(-c7ccc(Br)cc7)sc7cc(O)ccc67)cc5)CC4)ccc3C2=O)C(=O)N1` (stereo not shown) [Compound 59], the IC50 was 3.6 nM.

Take `O=C1CCC(N2C(=O)c3ccc(N4CCN(CCCCOc5ccc(Oc6c(-c7ccc(Br)cc7)sc7cc(O)ccc67)cc5)CC4)cc3C2=O)C(=O)N1` (stereo not shown) [Compound 60]: the IC50 is 29.9 nM.

For the compound `O=C1CCC(N2C(=O)c3ccc(NCCC4CCN(CCOc5ccc(Oc6c(-c7ccc(Br)cc7)sc7cc(O)ccc67)cc5)CC4)cc3C2=O)C(=O)N1` (stereo not shown) [Compound 62], the half-inhibitory concentration (IC50) amounted to 8.5 nM.

For the compound `O=C(CC1CCN(CCOc2ccc(Oc3c(-c4ccc(Br)cc4)sc4cc(O)ccc34)cc2)CC1)NCc1ccc2c(c1)CN(C1CCC(=O)NC1=O)C2=O` (stereo not shown) [Compound 63], the IC50 amounted to 0.82 nM.

Take `O=C1CCC(N2Cc3cc(NCCCC4CCN(CCOc5ccc(Oc6c(-c7ccc(Br)cc7)sc7cc(O)ccc67)cc5)CC4)ccc3C2=O)C(=O)N1` (stereo not shown) [Compound 64]: the IC50 turned out to be 2.9 nM.

In the case of `O=C1CCC(N2C(=O)c3ccc(OCCOCCOc4ccc(Oc5c(-c6ccc(Br)cc6)sc6cc(O)ccc56)cc4)cc3C2=O)C(=O)N1` (stereo not shown) [Compound 66], the IC50 came out at 5.8 nM.

As to `O=C1CCC(N2C(=O)c3ccc(NCCOCCOCCOc4ccc(Oc5c(-c6ccc(Br)cc6)sc6cc(O)ccc56)cc4)cc3C2=O)C(=O)N1` (stereo not shown) [Compound 67], the IC50 stood at 11.4 nM.

`O=C1CCC(N2C(=O)c3ccc(NCCCC4CCN(CCOc5ccc(Oc6c(-c7ccc(Br)cc7)sc7cc(O)ccc67)cc5)CC4)cc3C2=O)C(=O)N1` (stereo not shown) [Compound 68]: the IC50 came out at 5.9 nM.
